Reference: patent publication US11083717B2, “Compositions and methods for drug sensitization of parasites” (The Texas A&M University System, priority 2015, dated 2021)
Converted amounts (≈) assume the structure as drawn. Read-outs that look alike come from different tables or passages of the source.

How the values were obtained:
S. cerevisiae = test: in vitro; settings: Saccharomyces cerevisiae
human fibroblast = test: in vitro; settings: human
[1] = system: Cryptosporidium parvum (CP); test: Cell culture model of Cryptosporidium parvum infection in HCT-8 cells, real-time qRT-PCR; assay type: cell-based; settings: Cryptosporidium parvum
In short: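 HCT-8 monolayers were infected with C. parvum Iowa oocysts (1.5×10^4/well) for 3 h, then compounds were added after medium exchange and cells were incubated 41 h more (44 h total, 37 °C). Parasite Cp18S rRNA was measured by one-step SYBR qRT-PCR of lysates, normalized to host Hs18S, and % inhibition at the stated µM was derived from a standard curve.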

[2] = biological target: Human ether-a-go-go-related gene (hERG) (Homo sapiens, UniProt Q12809); test: hERG test (potential cardiotoxicity); assay type: biochemical; settings: read-out: hERG (Abbvie)
[3] = HCLint in vitro intrinsic clearance, human (HLM); assay type: in vitro ADME
Plasma protein binding = assay type: in vitro ADME; settings: mouse, mice, read-out: PPB (converted)
Kinetic solubility = assay type: physicochemical
[4] = MCLint in vitro intrinsic clearance, mouse (MLM); assay type: in vitro ADME
Cryptosporidium parvum = settings: for Mouse Model (Mead) DPI7: @50 mg/kg, day 7 post infection
Protocol: The anticryptosporidial activity of the in vitro inhibitors was assessed in the IL-12 knockout mouse model that resembles the acute human disease (Ehigiator H N, Romagnoli P, Borgelt K, Fernandez M, McNair N, Secor W E, Mead J R. 2005. Mucosal cytokine and antigen-specific responses to Cryptosporidium parvum in IL-12p40 KO mice. Parasite Immunol. 27: 17-28; Campbell L D, Stewart J N, Mead J R. 2002. Susceptibility to Cryptosporidium parvum infections in cytokine- and chemokine-receptor knockout mice. J. Parasitol. 88:1014-1016). The protocol was approved by the Institutional Animal Care and Use Committees of Emory University, the AtlantaVAMedical Center, and Brandeis University. Mice (6 to 10 per group) were inoculated with 1,000 purified CP oocysts (Iowa isolate, from cattle). Treatment by gavage began 4 h postinfection with either vehicle (5% dimethyl sulfoxide (DMSO) in canola oil), 50-100 mg/kg compound, or 2,000 mg/kg paromomycin. Compounds were given for 7 days, and mice were sacrificed on day 8 (peak infection). Parasite load was quantified by fluorescence-activated cell sorting (FACS) assays for the presence of the oocysts in the feces at days 0, 4, and 7. Fecal pellets from individual mice were routinely collected daily and homogenized in adjusted volumes of 2.5% potassium dichromate. Samples were processed individually. Aliquots (200 ul) of vortexed samples were processed over microscale sucrose gradients as previously described (Arrowood M J, Hurd M R, Mead J R. 1995. A new method for evaluating experimental cryptosporidial parasite loads using immunofluorescent flowcytometry. J. Parasitol. 81:404-409). The oocyst-containing fraction was collected, washed, and treated with monoclonal antibody (OW5O-FITC) for 20 min. Samples were adjusted to 600 ul, and a portion (100 ul) was assayed with a 102-s sampling interval using logical gating of forward/side scatter and OW5O-FITC fluorescence signal on a Becton, Dickinson FACScan flow cytometer. Flow cytometry data were evaluated by analysis of variance (KaleidaGraph (Synergy Software, Reading Pa.); Microsoft Excel (Microsoft Corporation, Redmond, Wash.)).
NZ-366 (50 mg/kg) and NZ-369 (100 mg/kg) were administered via gavage in a single daily dose to IL-12 knockout mice that were infected with 1,000 CP oocysts. Additional control groups included those treated with single daily doses of vehicle, and paromomycin (Prm) (2,000 mg/kg), by oral gavage.

hERG = hERG (Homo sapiens, UniProt Q12809); test: hERG test (potential cardiotoxicity); assay type: biochemical; settings: human; read-out: hERG (Abbvie)
[5] = 44 h, CP in HCT-8 cells, 44 h infection, 50% reduction of parasite growth vs control, NA: not active, read-out: MIC50
[6] = NZ-366 50 mg/kg, NZ-369 100 mg/kg, paromomycin 2,000 mg/kg

Human ether-a-go-go-related gene (hERG), sequence (Q12809 whole entry): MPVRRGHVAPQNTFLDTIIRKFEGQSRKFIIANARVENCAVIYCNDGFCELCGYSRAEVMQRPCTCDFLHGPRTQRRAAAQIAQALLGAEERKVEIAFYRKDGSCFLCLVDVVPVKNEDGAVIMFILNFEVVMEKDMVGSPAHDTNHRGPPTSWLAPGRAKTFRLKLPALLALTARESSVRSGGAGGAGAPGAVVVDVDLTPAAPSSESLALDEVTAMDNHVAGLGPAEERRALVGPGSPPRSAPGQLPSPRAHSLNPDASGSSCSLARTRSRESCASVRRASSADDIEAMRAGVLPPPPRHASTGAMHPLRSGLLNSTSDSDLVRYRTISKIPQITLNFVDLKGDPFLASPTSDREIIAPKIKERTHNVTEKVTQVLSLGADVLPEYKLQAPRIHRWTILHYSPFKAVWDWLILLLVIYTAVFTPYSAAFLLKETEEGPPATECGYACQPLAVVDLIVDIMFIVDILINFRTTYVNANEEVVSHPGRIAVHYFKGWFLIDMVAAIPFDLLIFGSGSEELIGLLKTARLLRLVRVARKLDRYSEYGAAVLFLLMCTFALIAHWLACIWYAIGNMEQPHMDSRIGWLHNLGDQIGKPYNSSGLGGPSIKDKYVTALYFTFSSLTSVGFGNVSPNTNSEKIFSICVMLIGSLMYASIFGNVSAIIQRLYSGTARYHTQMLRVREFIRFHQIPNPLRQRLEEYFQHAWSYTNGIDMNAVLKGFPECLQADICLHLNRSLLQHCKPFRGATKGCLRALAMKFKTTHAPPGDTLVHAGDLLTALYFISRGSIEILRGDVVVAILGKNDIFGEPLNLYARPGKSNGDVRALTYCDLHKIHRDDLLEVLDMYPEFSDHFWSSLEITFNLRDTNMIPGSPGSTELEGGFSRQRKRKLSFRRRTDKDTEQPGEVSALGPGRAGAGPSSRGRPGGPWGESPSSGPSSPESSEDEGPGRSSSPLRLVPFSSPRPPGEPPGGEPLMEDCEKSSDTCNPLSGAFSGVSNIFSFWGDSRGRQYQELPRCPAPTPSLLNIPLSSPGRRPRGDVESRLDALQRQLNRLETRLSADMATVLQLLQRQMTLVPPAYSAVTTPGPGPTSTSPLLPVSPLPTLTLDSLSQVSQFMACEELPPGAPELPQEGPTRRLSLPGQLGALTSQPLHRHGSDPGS
hERG, sequence (Q12809 whole entry): as above

| SMILES | concentrations at which not toxic, S. cerevisiae cytotoxicity testing (S. cerevisiae) | IC50 (in vitro; Saccharomyces cerevisiae) | IC50 (in vitro; human) | concentrations at which not toxic, human fibroblast cytotoxicity testing (human fibroblast) | MIC50 [1, 5] | MIC50 ([1]; read-out: MIC50 (nM) (CP)) | IC50 [2] | HCLint (mL/min/g liver), HLM [3] | fraction unbound (Plasma protein binding) | Kinetic Sol. (Kinetic solubility) | MCLint (mL/min/g liver), MLM [4] | Mouse Model (Mead) DPI7 (Cryptosporidium parvum) | overt toxicity in the treated infected mice (Cryptosporidium parvum; NZ-366 50 mg/kg, NZ-369 100 mg/kg, 7 days) | anticryptosporidial activity, fecal oocysts day 7 post infection (Cryptosporidium parvum; NZ-366 50 mg/kg, NZ-369 100 mg/kg, gavage, single daily dose, FIG. 1) | effectiveness compared with paromomycin after a single dose (Cryptosporidium parvum; [6]) | effectiveness compared with paromomycin over the course of the study (Cryptosporidium parvum; [6]) | effectiveness in the same type of test (IL-12 knockout mouse model) (Cryptosporidium parvum; mouse, in vivo) | IC50 (hERG) |
| --- | --- | --- | --- | --- | --- | --- | --- | --- | --- | --- | --- | --- | --- | --- | --- | --- | --- | --- |
| CC(C(=O)N1CCN(C)CC1)c1ccc(Oc2nc3ccc(Cl)cc3s2)cc1 (stereo not shown) [NZ-366, 2-{4-[(6-chloro-1,3-benzothiazol-2-yl)oxy]phenyl}-1-(4-methylpiperazin-1-yl)propan-1-one] | 25 to 50 µM | 80 µM | 48 µM | 25 to 50 µM | 50 nM (≈ 0.0208 µg/mL) | 50 nM (≈ 0.0208 µg/mL) | 2.4 µM | HLM = 7.9 mL/min/g liver | 0.019 | 62 µM | MLM = 41 mL/min/g liver | DPI7 = 59% | no overt toxicity | have anticryptosporidial activity | more effective than paromomycin | equally as effective as paromomycin |  |  |
| CC(C(=O)N1CCS(=O)(=O)CC1)c1ccc(Oc2nc3ccc(Cl)cc3s2)cc1 (stereo not shown) [NZ-553, 4-(2-{4-[(6-chloro-1,3-benzothiazol-2-yl)oxy]phenyl}propanoyl)-1λ^6,4-thiomorpholine-1,1-dione] |  | > 100 µM | 40 µM |  | 2 nM (≈ 0.000902 µg/mL) | 2 nM (≈ 0.000902 µg/mL) | 11 µM | HLM = 0.87 mL/min/g liver | 0.01 | 100 µM | MLM = 1.28 mL/min/g liver |  |  |  |  |  |  |  |
| CC(C)NC(=O)C(C)c1ccc(Oc2nc3ccc(Cl)cc3s2)cc1 (stereo not shown) [NZ-327, 2-{4-[(6-chloro-1,3-benzothiazol-2-yl)oxy]phenyl}-N-(propan-2-yl)propanamide] | ≥ 100 µM | > 100 µM | > 100 µM | ≥ 100 µM | 7 to 22 nM (≈ 0.00262 to 0.00825 µg/mL) | 7 to 22 nM (≈ 0.00262 to 0.00825 µg/mL) |  | HLM = 1.3 mL/min/g liver | 0.016 | 33 µM | MLM = 3.7 mL/min/g liver |  |  |  |  |  |  |  |
| CC(C(=O)N1CCOCC1)c1ccc(Oc2nc3ccc(Cl)cc3s2)cc1 (stereo not shown) [NZ-365, 2-{4-[(6-chloro-1,3-benzothiazol-2-yl)oxy]phenyl}-1-(morpholin-4-yl)propan-1-one] | 50 to 100 µM | > 100 µM | > 100 µM | ≥ 100 µM | 25 nM (≈ 0.0101 µg/mL) | 25 nM (≈ 0.0101 µg/mL) | 12 µM | HLM = 4.8 mL/min/g liver |  | 28 µM | MLM = 10 mL/min/g liver |  |  |  |  |  |  |  |
| CC(C(=O)NC1CCC1)c1ccc(Oc2nc3ccc(Cl)cc3s2)cc1 (stereo not shown) [NZ-539, 2-{4-[(6-chloro-1,3-benzothiazol-2-yl)oxy]phenyl}-N-cyclobutylpropanamide] |  | > 100 µM | > 100 µM |  | 57 nM (≈ 0.0221 µg/mL) | 57 nM (≈ 0.0221 µg/mL) | > 30 µM | HLM = 1.8 mL/min/g liver |  |  | MLM = 4.4 mL/min/g liver |  |  |  |  |  |  |  |
| CC(C(=O)NC1CCOC1)c1ccc(Oc2nc3ccc(Cl)cc3s2)cc1 (stereo not shown) [NZ-544, 2-{4-[(6-chloro-1,3-benzothiazol-2-yl)oxy]phenyl}-N-(oxolan-3-yl)propanamide] |  | > 100 µM | > 100 µM |  | 72 nM (≈ 0.029 µg/mL) | 72 nM (≈ 0.029 µg/mL) | 11 µM | HLM = 2.6 mL/min/g liver |  |  | MLM = 3.3 mL/min/g liver |  |  |  |  |  |  |  |
| CC(C(=O)NCCN(C)C)c1ccc(Oc2nc3ccc(Cl)cc3s2)cc1 (stereo not shown) [NZ-516, 2-{4-[(6-chloro-1,3-benzothiazol-2-yl)oxy]phenyl}-N-[2-(dimethylamino)ethyl]propanamide] | ≥ 100 µM | > 100 µM | 5.6 µM | ≥ 100 µM | 16 nM (≈ 0.00646 µg/mL) | 16 nM (≈ 0.00646 µg/mL) | 2.7 µM | HLM = 0.54 mL/min/g liver |  | 100 µM | MLM = 4.1 mL/min/g liver | DPI7 = 94% |  |  |  |  | effective |  |
| CC(C(=O)NCCO)c1ccc(Oc2nc3ccc(Cl)cc3s2)cc1 (stereo not shown) [NZ-370, 2-{4-[(6-chloro-1,3-benzothiazol-2-yl)oxy]phenyl}-N-(2-hydroxyethyl)propanamide] | ≥ 100 µM | > 100 µM | > 100 µM | ≥ 100 µM | 50 to 60 nM (≈ 0.0188 to 0.0226 µg/mL) | 50 to 60 nM (≈ 0.0188 to 0.0226 µg/mL) |  |  |  | 40 µM |  |  |  |  |  |  |  | 30 µM |
